Measurements reported in patent US8524691B2, “Phosphonated rifamycins and uses thereof for the prevention and treatment of bone and joint infections” (The Medicines Company, priority 2008, dated 2013).
≈ marks a conversion by molar mass, not a printed value. Where two headings read alike, the source gives them in different places.

Assays:
[1] = test system: S. aureus ATCC 13709^A, Novobiocin and Rifampicin resistant variant; assay: Antibacterial susceptibility (MIC), NCCLS broth microdilution; assay type: cell-based
Method in brief: (§1)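 Two-fold serial dilutions in DMSO were tested in cation-adjusted Mueller Hinton broth, following NCCLS M26-A, at 5×10^5 c.f.u./mL with 1.25% DMSO final, in duplicate. Plates were incubated at 37 °C for 18 h. MIC was the lowest concentration inhibiting visible growth.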

S. aureus ATCC 29213 = assay: as above; assay type: cell-based; details: for Minimum inhibitory concentration, S. aureus ATCC 29213: CAMHB, 37° C., 18 h
Method in brief: as §1

[2] = assay type: in vitro ADME; details: for % Conversion (prodrug converted to parent drug after binding to bone): 24 h incubation, 37° C.
Description: Amounts of parent drug “regenerated” from the phosphonated prodrug were measured as follows. Washed bone powder-bound prodrugs from the above experiment were resuspended in 400 μL PBS+2% DMSO or in 400 μL 50% (v/v in PBS+2% DMSO) human or rat serum. The suspension was incubated overnight at 37° C., centrifuged at 13,000 rpm for 2 min and the supernatant was recovered. The amount of regenerated parent drug in the supernatant was determined by measurements using the microbiological assay that was previously described for the prodrugs themselves. The amount of prodrug was deduced from standard curves of known amounts of parent drug that were used as reference for each experiment. The amount of regenerated drug assessed by this bioassay was corroborated by MIC determination. The percentage of drug regenerated in PBS or serum after the overnight incubation (Table 2) was deduced from the difference between the amount of bound prodrug and the amount of regenerated drug (not shown).

S. aureus ATCC 13709 [3] = assay: microbe, parasite or virus in culture; assay type: cell-based; details: for Serum dependence of antibacterial activity (in words): MIC with versus without serum; for MIC: Staphylococcus aureus, ATCC13709, 18 h
S. aureus ATCC 13709 [4] = assay: microbe, parasite or virus in culture; assay type: cell-based; details: for Minimum inhibitory concentration, S. aureus ATCC 13709: CAMHB, 37° C., 18 h; for Antibacterial activity (in words, from Table 1): S. aureus MIC
Method in brief: as §1

[5] = test system: Novobiocin resistant mutant strain of S. aureus ATCC 13709; assay: Prophylactic efficacy in rat model of S. aureus bone infection; assay type: in vivo; details: for Measured bacterial titer, test compound: 20 mg/kg parent drug equivalent, tibia 24 h postinfection; for Prophylactic activity in rat bone infection model (in words): 20 mg/kg, 1 day or 5 days prior to infection
Method in brief: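 Female CD rats (n=5/group) received an intra-tibial injection of sodium morrhuate followed by about 2×10^7 CFU of a novobiocin-resistant S. aureus ATCC 13709 mutant. Prodrugs in saline were given as a single IV bolus at set times before infection, and moxifloxacin 10 mg/kg IV at 1 h post-infection. Tibial bacterial load (Log CFU/g bone; detection limit 2 Log) was measured at 24 h and compared by Dunnett's test.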

[6] = single intravenous bolus 1 day prior to infection
[7] = single intravenous bolus 5 days prior to infection

Row | Structure (SMILES) | Minimum inhibitory concentration, S. aureus ATCC 13709^A [1] | Minimum inhibitory concentration, S. aureus ATCC 29213 (S. aureus ATCC 29213) | Release of parent rifabutin from bone powder-bound prodrug (in words) [2] | % Conversion (prodrug converted to parent drug after binding to bone) ([2]; 50% Heat Inactivated Rat Serum) | % Conversion (prodrug converted to parent drug after binding to bone) ([2]; 50% Rat Serum) | % Conversion (prodrug converted to parent drug after binding to bone) ([2]; PBS) | Minimum inhibitory concentration, ATCC 13709 + 50% Human Serum (S. aureus ATCC 13709 [3]) | Minimum inhibitory concentration, ATCC 13709 + 50% Mouse Serum (S. aureus ATCC 13709 [3]) | Minimum inhibitory concentration, ATCC 13709 + 50% Rat Serum (S. aureus ATCC 13709 [3]) | Minimum inhibitory concentration, S. aureus ATCC 13709 (S. aureus ATCC 13709 [4]) | Antibacterial activity (in words, from Table 1) (S. aureus ATCC 13709 [4]) | Measured bacterial titer, test compound [5, 6] | Measured bacterial titer, test compound [5, 7] | Prophylactic activity in rat bone infection model (in words) [5] | Serum dependence of antibacterial activity (in words) (S. aureus ATCC 13709 [3]) | further results
1 | CCN(CC)CC.CCN(CC)CC.CO[C@H]1/C=C/O[C@@]2(C)Oc3c(C)c(O)c4c(c3C2=O)C2=NC3(CCN(CC(C)C)CC3)N(C(=O)OCc3ccc(OC(=O)CCCC(P(=O)(O)O)P(=O)(O)O)cc3)C2=C(NC(=O)/C(C)=C\C=C\[C@H](C)[C@H](O)[C@@H](C)[C@@H](O)[C@@H](C)[C@H](OC(C)=O)[C@@H]1C)C4=O [Compound 18] | >128 mg/L | 0.125 mg/L | release significant amounts of the parent rifabutin once bound to bone powder, regardless of the presence of serum | 0.55 ± 0.20% | 0.95 ± 0.40% | 0.66 ± 0.03% | 0.125 mg/L | 0.125 mg/L | 0.0156 mg/L | 0.125 mg/L | very low MICs whether in the absence or in the presence of serum | 2.08 ± 0.02 Log CFU/g of bone | 2.91 ± 1.33 Log CFU/g of bone | active at 1 day and display activity similar to rifabutin at 5 days | – | –
2 | CCC(=O)OCOC(=O)N[C@@H](CCCCNC(=O)CCC(P(=O)(O)O)P(=O)(O)O)C(=O)N(C)CC(=O)O[C@@H]1[C@@H](C)[C@@H](O)[C@@H](C)[C@H](OC(C)=O)[C@H](C)[C@@H](OC)/C=C/O[C@@]2(C)Oc3c(C)c(O)c4c(c3C2=O)C2=NC3(CCN(CC(C)C)CC3)NC2=C(NC(=O)/C(C)=C\C=C\[C@@H]1C)C4=O.N.N [Compound 95] | >128 mg/L | 4 mg/L | regeneration is clearly accelerated by the presence of serum | 0.13% | 0.14 ± 0.06% | 0.02% | 16 mg/L | 0.0625 mg/L | 0.0156 mg/L | 4 mg/L | – | 2.3 ± 0.57 Log CFU/g of bone | 3.75 ± 0.54 Log CFU/g of bone | active at 1 day and display activity similar to rifabutin at 5 days | significant increase in antibacterial activity in serum | –
3 | CCC(=O)OCOC(=O)N[C@@H](CCC(=O)NC(P(=O)(O)O)P(=O)(O)O)C(=O)N(C)CC(=O)O[C@@H]1[C@@H](C)[C@@H](O)[C@@H](C)[C@H](OC(C)=O)[C@H](C)[C@@H](OC)/C=C/O[C@@]2(C)Oc3c(C)c(O)c4c(c3C2=O)C2=NC3(CCN(CC(C)C)CC3)NC2=C(NC(=O)/C(C)=C\C=C\[C@@H]1C)C4=O [Compound 102] | – | – | – | – | – | – | – | – | – | – | – | 2.89 ± 1.13 Log CFU/g of bone | 5.38 ± 0.83 Log CFU/g of bone | active at 1 day and display activity similar to rifabutin at 5 days | significant increase in antibacterial activity in serum | MIC ([1]; Staphylococcus aureus, ATCC13709, read-out: Minimum inhibitory concentration, S. aureus ATCC 13709^A): > 128 mg/L; MIC (S. aureus ATCC 29213; Staphylococcus aureus, ATCC29213, 18 h, read-out: Minimum inhibitory concentration, S. aureus ATCC 29213): 2 mg/L (≈ 1.48 µM); Release of parent rifabutin from bone powder-bound prodrug (in words) ([2]; PBS versus serum): regeneration is clearly accelerated by the presence of serum; MIC (S. aureus ATCC 13709 [3]; read-out: Minimum inhibitory concentration, ATCC 13709 + 50% Human Serum): 16 mg/L; MIC (S. aureus ATCC 13709 [3]; read-out: Minimum inhibitory concentration, ATCC 13709 + 50% Mouse Serum): 0.0625 mg/L; MIC (S. aureus ATCC 13709 [3]; read-out: Minimum inhibitory concentration, ATCC 13709 + 50% Rat Serum): 0.0156 mg/L; MIC (S. aureus ATCC 13709 [4]; Staphylococcus aureus, ATCC13709, 18 h, read-out: Minimum inhibitory concentration, S. aureus ATCC 13709): 4 mg/L (≈ 2.96 µM)
4 | CCC(=O)OCOC(=O)N[C@@H](Cc1ccc(OCCCC(P(=O)(O)O)P(=O)(O)O)cc1)C(=O)N(C)CC(=O)O[C@@H]1[C@@H](C)[C@@H](O)[C@@H](C)[C@H](OC(C)=O)[C@H](C)[C@@H](OC)/C=C/O[C@@]2(C)Oc3c(C)c(O)c4c(c3C2=O)C2=NC3(CCN(CC(C)C)CC3)NC2=C(NC(=O)/C(C)=C\C=C\[C@@H]1C)C4=O.N.N [Compound 89] | >128 mg/L | 4 mg/L | regeneration is clearly accelerated by the presence of serum | 0.16 ± 0.04% | 0.18% | 0.02% | 16 mg/L | 0.0625 mg/L | 0.0156 mg/L | 4 mg/L | – | 2.05 ± 0.07 Log CFU/g of bone | 3.45 ± 1.36 Log CFU/g of bone | active at 1 day and display activity similar to rifabutin at 5 days | significant increase in antibacterial activity in serum | –
5 | CCN(CC)CC.CO[C@H]1/C=C/O[C@@]2(C)Oc3c(C)c(O)c4c(c3C2=O)C2=NC3(CCN(CC(C)C)CC3)NC2=C(NC(=O)/C(C)=C\C=C\[C@H](C)[C@H](OC(=O)CN(C)C(=O)Nc2ccc(CC(P(=O)(O)O)P(=O)(O)O)cc2)[C@@H](C)[C@@H](O)[C@@H](C)[C@H](OC(C)=O)[C@@H]1C)C4=O [Compound 142b] | >128 mg/L | 0.0625 mg/L | release significant amounts of the parent rifabutin once bound to bone powder, regardless of the presence of serum | 0.24 ± 0.04% | 0.22 ± 0.06% | 0.37 ± 0.08% | 0.5 mg/L | 0.0625 mg/L | 0.008 mg/L | 0.125 mg/L | very low MICs whether in the absence or in the presence of serum | 2.14 ± 0.08 Log CFU/g of bone | 4.79 ± 1.40 Log CFU/g of bone | – | – | –
